The test system of data set [1] is HCT-116. The data set is described as follows: Cytotoxicity against human HCT-116 cells assessed as inhibition of cell growth measured after 72 hrs by MTT assay. The following applies: HCT-116, 72 h. In kind it is functional, cell-based.
A short description of data set [2]: Cytotoxicity against human HCT116-p53-null cells assessed as inhibition of cell growth measured after 72 hrs by MTT assay. In kind it is functional, cell-based.
The test system of data set [3] is MCF7. The data set is described as follows: Cytotoxicity against human MCF7 cells assessed as inhibition of cell growth measured after 72 hrs by MTT assay. Type of data set: functional, cell-based. The settings on record: MCF7, 72 h.
A short description of data set [4]: Hemolytic activity in human red blood cells incubated for 2 hrs by microplate reader assay. Type of data set: toxicity, cell-based, Erythrocyte. The settings on record: red blood cells (erythrocytes), read-out: HD50.
Data set [5] can be described thus: Hemolytic activity in human red blood cells at 78 uM incubated for 2 hrs by microplate reader assay relative to control. Type of data set: toxicity, cell-based, Erythrocyte. The settings on record: red blood cells (erythrocytes), read-out: Activity.

The values below come from ChEMBL document CHEMBL5137117, “Cytotoxic Cyclotides from Anchietea pyrifolia, a South American Plant Species” (J Nat Prod, 2022).

Bridge positions count the residues as written; N and C are the ends. Peptide text beside a SMILES is read from it. Where only a bound is given, the exact number is not on record here.

As for `CC[C@H](C)[C@@H]1NC(=O)[C@H](C)NC(=O)[C@H](C)NC(=O)[C@H](CO)NC(=O)[C@H]([C@@H](C)CC)NC(=O)[C@@H]2CSSC[C@@H]3NC(=O)[C@H](C(C)C)NC(=O)[C@H](CCCCN)NC(=O)[C@H](CC(N)=O)NC(=O)[C@H](CCCCN)NC(=O)[C@@H]4CSSC[C@H](NC(=O)[C@H](CO)NC(=O)[C@H](CCC(=O)O)NC(=O)CNC(=O)[C@H](CSSC[C@H](NC(=O)CNC1=O)C(=O)N[C@@H](CO)C(=O)N4)NC(=O)[C@@H]1CCCN1C(=O)[C@H]([C@@H](C)CC)NC(=O)CNC(=O)[C@H](CC(N)=O)NC(=O)[C@H](CCCNC(=N)N)NC(=O)[C@H](Cc1ccc(O)cc1)NC3=O)C(=O)N[C@@H](C(C)C)C(=O)N[C@@H](Cc1c[nH]c3ccccc13)C(=O)N[C@@H]([C@@H](C)CC)C(=O)N1CCC[C@H]1C(=O)N2` (cyclo(AAIGCSCKNKVCYRNGIPCGESCVWIPCIS); disulfide 5-19, 7-23, 12-28), the IC50 in data set [1] came to 0.8 µM; in data set [2], 1.2 µM; in data set [3], 5.6 µM. In addition, the HC50 at 2 h in data set [4] was > 156 µM. Further, the hemolysis at 2 h, 78 µM in data set [5] was determined as 23%.
Taken in the same sequence, the figures for `CC[C@H](C)[C@@H]1NC(=O)[C@H](CO)NC(=O)[C@H](CC(N)=O)NC(=O)[C@H](CCCCN)NC(=O)[C@H](Cc2ccc(O)cc2)NC(=O)[C@@H]2CSSC[C@@H]3NC(=O)[C@@H]4CCCN4C(=O)[C@H]([C@@H](C)CC)NC(=O)[C@H](Cc4c[nH]c5ccccc45)NC(=O)[C@H](C(C)C)NC(=O)[C@@H]4CSSC[C@H](NC(=O)[C@H](CO)NC(=O)[C@H](CSSC[C@H](NC(=O)[C@@H]5CCCN5C1=O)C(=O)NCC(=O)N[C@@H](CCC(=O)O)C(=O)N[C@@H](CO)C(=O)N4)NC(=O)CNC(=O)[C@H](C)NC(=O)[C@H](CC(C)C)NC(=O)[C@H](C)NC(=O)[C@H]([C@@H](C)O)NC(=O)[C@H](C(C)C)NC(=O)[C@H]([C@@H](C)O)NC3=O)C(=O)N[C@@H](CCCCN)C(=O)N[C@@H](CC(N)=O)C(=O)N[C@@H](CCCCN)C(=O)N[C@@H](C(C)C)C(=O)N2` (cyclo(AGCSCKNKVCYKNSIPCGESCVWIPCTVTAL); disulfide 3-17, 5-21, 10-26) were 1.4 µM, 2.3 µM, 7.3 µM, > 78 µM and < 50%.
As for `CC[C@H](C)[C@@H]1NC(=O)[C@H](C)NC(=O)[C@H](CO)NC(=O)[C@H](CO)NC(=O)[C@H]([C@@H](C)CC)NC(=O)[C@@H]2CSSC[C@@H]3NC(=O)[C@H](C(C)C)NC(=O)[C@H](CCCCN)NC(=O)[C@H](CC(N)=O)NC(=O)[C@H](CCCCN)NC(=O)[C@@H]4CSSC[C@H](NC(=O)[C@H](CO)NC(=O)[C@H](CCC(=O)O)NC(=O)CNC(=O)[C@H](CSSC[C@H](NC(=O)CNC1=O)C(=O)N[C@@H](CO)C(=O)N4)NC(=O)[C@@H]1CCCN1C(=O)[C@H]([C@@H](C)CC)NC(=O)CNC(=O)[C@H](CC(N)=O)NC(=O)[C@H](CCCNC(=N)N)NC(=O)[C@H](Cc1ccc(O)cc1)NC3=O)C(=O)N[C@@H](C(C)C)C(=O)N[C@@H](Cc1c[nH]c3ccccc13)C(=O)N[C@@H]([C@@H](C)CC)C(=O)N1CCC[C@H]1C(=O)N2` (cyclo(AIGCSCKNKVCYRNGIPCGESCVWIPCISS); disulfide 4-18, 6-22, 11-27), the values for the IC50 in data set [1], in data set [2] and in data set [3] were 1.4 µM, 2.1 µM and 7.1 µM, respectively. In addition, the HC50 at 2 h in data set [4] was > 156 µM.
Take `CC[C@H](C)[C@@H]1NC(=O)[C@H](C)NC(=O)[C@H]([C@@H](C)O)NC(=O)[C@H](C(C)C)NC(=O)[C@H]([C@@H](C)O)NC(=O)[C@@H]2CSSC[C@@H]3NC(=O)[C@H](C(C)C)NC(=O)[C@H](CCCCN)NC(=O)[C@H](CO)NC(=O)[C@H](CCCCN)NC(=O)[C@@H]4CSSC[C@H](NC(=O)[C@H](CO)NC(=O)[C@H](CCC(=O)O)NC(=O)CNC(=O)[C@H](CSSC[C@H](NC(=O)CNC(=O)[C@H]([C@@H](C)CC)NC1=O)C(=O)N[C@@H](CO)C(=O)N4)NC(=O)[C@@H]1CCCN1C(=O)[C@H](CC(C)C)NC(=O)CNC(=O)[C@H](CC(N)=O)NC(=O)[C@H](CCCCN)NC(=O)[C@H](Cc1ccc(O)cc1)NC3=O)C(=O)N[C@@H](C(C)C)C(=O)N[C@@H](Cc1ccccc1)C(=O)N[C@@H](CC(C)C)C(=O)N1CCC[C@H]1C(=O)N2` (cyclo(AIIGCSCKSKVCYKNGLPCGESCVFLPCTVT); disulfide 5-19, 7-23, 12-28): the figures for the IC50 in data set [1], in data set [2] and in data set [3] were 1.1 µM, 1.3 µM and 5.8 µM, respectively.
For `CC[C@H](C)[C@@H]1NC(=O)CNC(=O)[C@H](CO)NC(=O)[C@H]([C@@H](C)CC)NC(=O)[C@@H]2CSSC[C@@H]3NC(=O)[C@H](C(C)C)NC(=O)[C@H](CCCCN)NC(=O)[C@H](CC(N)=O)NC(=O)[C@H](CO)NC(=O)[C@@H]4CSSC[C@H](NC(=O)[C@H](CO)NC(=O)[C@H](CCC(=O)O)NC(=O)CNC(=O)[C@H](CSSC[C@H](NC(=O)CNC(=O)[C@H](CC(C)C)NC1=O)C(=O)N[C@@H](CO)C(=O)N4)NC(=O)[C@@H]1CCCN1C(=O)[C@H](C(C)C)NC(=O)[C@H](CO)NC(=O)CNC(=O)[C@H](CC(N)=O)NC(=O)[C@H](Cc1ccc(O)cc1)NC(=O)[C@H](Cc1ccc(O)cc1)NC3=O)C(=O)N[C@@H](C(C)C)C(=O)N[C@@H](Cc1c[nH]c3ccccc13)C(=O)N[C@@H]([C@@H](C)CC)C(=O)N1CCC[C@H]1C(=O)N2` (cyclo(CGESCVWIPCISGILGCSCSNKVCYYNGSVP); disulfide 1-17, 5-19, 10-24), the IC50 came to 2.3 µM in data set [1], 2.6 µM in data set [2] and 5.1 µM in data set [3]. Also, in data set [4], the HC50 at 2 h stood at 22 µM. The hemolysis at 2 h, 78 µM in data set [5] stood at 87%.
Turning to `COc1cccc2c1C(=O)c1c(O)c3c(c(O)c1C2=O)C[C@@](O)(C(=O)CO)C[C@@H]3O[C@H]1C[C@H](N)[C@H](O)[C@H](C)O1` [DOXORUBICIN], in data set [3], the IC50 was found to be 0.5 µM.
